Values quoted from earlier work, collected in patent US8871208B2, “11-β-hydroxysteroid dehydrogenase type 1 (11β-HSD1) inhibitors and uses thereof” (AbbVie Inc., priority 2009, dated 2014).
pIC50, pKi: −log10 of the molar value.

Target: 11βHSD-1 (Homo sapiens, UniProt P28845)
Conditions: Table 1; @ 10 μM; cited from earlier work

Chain of 11βHSD-1 (P28845 whole entry, species assumed): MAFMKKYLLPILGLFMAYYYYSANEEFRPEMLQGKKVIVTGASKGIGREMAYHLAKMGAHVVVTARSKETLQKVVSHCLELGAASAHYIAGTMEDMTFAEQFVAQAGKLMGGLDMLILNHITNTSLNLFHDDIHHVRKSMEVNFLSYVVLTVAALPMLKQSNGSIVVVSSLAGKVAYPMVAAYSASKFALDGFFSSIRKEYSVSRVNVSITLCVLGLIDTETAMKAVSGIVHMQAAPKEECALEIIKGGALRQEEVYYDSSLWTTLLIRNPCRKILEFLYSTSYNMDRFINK

Question: With `Cc1c(Cl)cccc1S(=O)(=O)Nc1ccc2c(c1)nc(C)n2C` [Example 505] as the compound, how does the “% @ 10 μM” value read?
Answer: 110% @ 10

Same assay, conditions: Table 1; Barf et al., Drugs of the Future 31(3), 231-243 (2006); read-out: IC50; cited from earlier work

Question: With `O=C1CC(c2ccccc2)Oc2ccccc21` (stereo not drawn) [Example 497] as the compound, how does the pIC50 read?
Answer: 4.74

Question: With `CCCC(=O)Cc1csc(NS(=O)(=O)c2cccc(Cl)c2C)n1` [Example 502] as the compound, how does the pIC50 read?
Answer: 7.85

Question: With `CC(C)c1nsc(NS(=O)(=O)c2ccc(Oc3ccccc3)cc2)n1` [Example 503] as the compound, how does the pIC50 read?
Answer: 6.66

Question: With `COc1cc(-c2nnc(C34CC5CC(CC(C5)C3)C4)n2C)cc(OC)c1OC` [Example 507] as the compound, how does the pIC50 read?
Answer: > 8.00

Question: With `CC(C)(C(=O)NC1C2CC3CC(C2)CC1C3)c1ccc(F)cc1` (stereo not drawn) [Example 512] as the compound, how does the pIC50 read?
Answer: > 6.00

Question: With `O=C(c1ccc(-c2ccccc2[N+](=O)[O-])o1)N1CC[C@@H]2CCCC[C@@H]2C1` [Example 514] as the compound, how does the pIC50 read?
Answer: 8.11

Question: With `O=C(CS(=O)(=O)N1CCCC1)c1ccc(F)cc1` [Example 519] as the compound, how does the pIC50 read?
Answer: 7.03

Question: With `O=C(Cc1ccc(Cl)cc1)c1ccc(Br)cc1` [Example 520] as the compound, how does the pIC50 read?
Answer: 7.11

Question: With `CC(=O)Nc1ccc(OCC(=O)c2ccc(Cl)cc2)cc1` [Example 521] as the compound, how does the pIC50 read?
Answer: 6.82

Question: With `O=C(c1ccc(OC(F)(F)F)cc1)C1CCN(C(=O)c2ccc(F)cc2)CC1` [Example 523] as the compound, how does the pIC50 read?
Answer: 7.30

Same assay, conditions: Table 3; @ 39 nM; cited from earlier work

Question: With `CC1(C2CC2)Cc2nnc(-c3ccccc3Cl)n2CCS1` (stereo not drawn) [Example 534] as the compound, how does the “% @ 39 nM” value read?
Answer: 71.8% @ 39

Same assay, conditions: Table 3; Boyle et al., Expert Opin. Ther. Patents 19(6), 801-825 (2009); read-out: IC50; cited from earlier work

Question: With `CC(CC(F)(F)F)c1nnc(C23CCC(c4nnc(-c5ccccc5C(F)(F)F)n4C)(CC2)CC3)o1` (stereo not drawn) [Example 531] as the compound, how does the pIC50 read?
Answer: 7.00 to 8.05

Question: With `CCOc1cc(NC(C)=O)ccc1-c1nnc(N(C)c2ccc(F)cc2)n1C` [Example 532] as the compound, how does the pIC50 read?
Answer: 8.47

Question: With `N#Cc1ccccc1CSc1nc(O)c(Cl)c2ccc(Cl)cc12` [Example 537] as the compound, how does the pIC50 read?
Answer: 8.70

Question: With `CCSc1nc(N2CCOC(C(=O)O)C2)ccc1C(=O)NC1C2CC3CC(C2)CC1C3` (stereo not drawn) [Example 547] as the compound, how does the pIC50 read?
Answer: 8.22

Question: With `O=C(NC1C2CC3CC(C2)CC1C3)[C@H]1CCCN1S(=O)(=O)c1ccc(Cl)cc1` (stereo partly drawn) [Example 548] as the compound, how does the pIC50 read?
Answer: > 10.52

Question: With `O=C(NC1C2CC3CC1CC(O)(C3)C2)c1ccc(Oc2ccc(Cl)cn2)cc1` (stereo not drawn) [Example 551] as the compound, how does the pIC50 read?
Answer: ~7.15

Question: With `Cc1cc(Cl)ccc1OCCCC(=O)N(C)C1C2CC3CC(C2)C(CO)C1C3` (stereo not drawn) [Example 555] as the compound, how does the pIC50 read?
Answer: 9.00

Question: With `CC1(C2CC2)CN(C2C3CC4CC2CC(O)(C4)C3)C(=O)N1C1CC1` (stereo not drawn) [Example 557] as the compound, how does the pIC50 read?
Answer: 8.52

Question: With `CN1C(=O)N(C2C3CC4CC(C3)CC2C4)C[C@@H]1C(C)(C)C` (stereo partly drawn) [Example 558] as the compound, how does the pIC50 read?
Answer: > 7.30

Question: With `C[C@@H](c1ccc(Cl)cc1)N1CCN([C@H]2C3CC4CC2C[C@](O)(C4)C3)C1=O` [Example 559] as the compound, how does the pIC50 read?
Answer: 7.92

Question: With `CC1(C)NC2(CCN(C(=O)NC3C4CC5CC(C4)CC3C5)CC2)c2c(Cl)cccc21` (stereo not drawn) [Example 560] as the compound, how does the pIC50 read?
Answer: > 7.30

Question: With `O=C(c1ccc(-c2cc(Cl)c(C[C@@H]3CCN(C4CCCCC4)C3=O)c(Cl)c2)cc1)N1CCN(CCF)CC1` [Example 564] as the compound, how does the pIC50 read?
Answer: 6.94

Question: With `O=C1[C@H](Cc2c(Cl)cc(-c3ccc(F)cc3)cc2Cl)CCN1C1CCc2n[nH]cc2C1` (stereo partly drawn) [Example 570] as the compound, how does the pIC50 read?
Answer: 6.56

Question: With `O=C(c1ccc(-c2cc(Cl)c(CN3CCC(C4CCCCC4)C3=O)c(Cl)c2)cc1)N1CCN(CCF)CC1` (stereo not drawn) [Example 572] as the compound, how does the pIC50 read?
Answer: 7.81

Question: With `C[C@@H](c1ccc2ccccc2c1)N1CCN(Cc2ccccc2)C1=O` [Example 575] as the compound, how does the pIC50 read?
Answer: 8.54

Question: With `O=C(c1cnn(C2CCNCC2)c1C1CC1)N1CC[C@@H](c2ccccc2C(F)(F)F)C1` [Example 578] as the compound, how does the pIC50 read?
Answer: > 7.52

Question: With `CC(=O)N1CCC2(CC(C3(c4ccc(Cl)cc4)CC3)=NO2)C1` (stereo not drawn) [Example 579] as the compound, how does the pIC50 read?
Answer: > 5.30

Question: With `O=C1OC2(CCN(C(=O)C(O)c3ccc(Br)cc3F)C2)c2ccccc21` (stereo not drawn) [Example 580] as the compound, how does the pIC50 read?
Answer: > 6.00

Question: With `O=C1OC2(CCN(C(=O)Nc3ccc(Cl)cc3F)C2)c2ccccc21` (stereo not drawn) [Example 581] as the compound, how does the pIC50 read?
Answer: > 4.70

Question: With `O=C(N1CCC(c2cn[nH]c2)CC1)N1CCOc2ccc(Cl)cc21` [Example 583] as the compound, how does the pIC50 read?
Answer: 7.41

Question: With `Cc1ccc(C(=O)N(C2CC2)[C@H]2CC[C@H](CCO)CC2)c(F)c1` [Example 594] as the compound, how does the pIC50 read?
Answer: 8.70

Question: With `C[C@@H]1CN(c2ccc(C(N)(C(F)(F)F)C(F)(F)F)cc2)CCN1S(=O)(=O)c1ccc(C(C)(O)C(F)(F)F)cc1` (stereo partly drawn) [Example 596] as the compound, how does the pIC50 read?
Answer: > 8.00

Question: With `Cc1ccc(S(=O)(=O)N2CCCN(c3c(Cl)cncc3Cl)CC2)cc1` [Example 597] as the compound, how does the pIC50 read?
Answer: 6.04

Question: With `O=S(=O)(Cc1ccc(C(F)(F)F)cc1)N1CCN(c2ncccc2C(F)(F)F)CC1` [Example 598] as the compound, how does the pIC50 read?
Answer: 6.37

Same assay, conditions: Table 4; Webster et al., Expert Opin. Ther. Patents 17(12), 1407-1422 (2007); read-out: IC50; cited from earlier work

Question: With `O=S(=O)(Nc1ccnc(C2CC2)n1)c1ccc2ccccc2c1` [Example 680] as the compound, how does the pIC50 read?
Answer: 7.70

Question: With `Cc1c(S(=O)(=O)Nc2nc(C34CC5CC(CC(C5)C3)C4)cs2)sc2ccc(Cl)cc12` [Example 681] as the compound, how does the pIC50 read?
Answer: 7.74

Question: With `O=S(=O)(Nc1nc(C23CC4CC(CC(C4)C2)C3)cs1)c1cc2ccccc2s1` [Example 682] as the compound, how does the pIC50 read?
Answer: 7.38

Same assay, conditions: Table 4; Webster et al., Expert Opin. Ther. Patents 17(12), 1407-1422 (2007); read-out: Ki; cited from earlier work

Question: With `Cc1cc(N)nc(NS(=O)(=O)c2sc(-c3ccc(C#N)cc3)nc2C)c1` [Example 672] as the compound, how does the pKi read?
Answer: 8.55

Question: With `CC(O)c1cccc(NS(=O)(=O)c2ccc(-c3ccc(C#N)cc3)cc2)n1` (stereo not drawn) [Example 673] as the compound, how does the pKi read?
Answer: 8.74

Same assay, conditions: Table 5; Boyle, Current Opinion in Drug Discovery & Development 2008, 11(4), 495-511; cited from earlier work

Question: For `O=C(c1cnoc1-c1ccc(F)cc1)N1CCC(c2ccccc2)C1` (stereo not drawn) [Example 700], which IC50 is on record?
Answer: 8 − 10,000 nM

Same assay, conditions: Table 5; Boyle, Current Opinion in Drug Discovery & Development 2008, 11(4), 495-511; read-out: IC50; cited from earlier work

Question: With `CC1(C)CC2CC(C)(CN2C(=O)c2cc(Cl)c(N)c(Cl)c2)C1` (stereo not drawn) [Example 693] as the compound, how does the pIC50 read?
Answer: 8.40

Question: With `CC1(C)CC2CC(C)(CN2C(=O)c2ccc(C(C)(C)O)cc2)C1` (stereo not drawn) [Example 696] as the compound, how does the pIC50 read?
Answer: 8.15

Question: With `COc1cc(C(=O)N2CCC(n3c(=O)[nH]c4ccccc43)CC2)ccc1C` [Example 698] as the compound, how does the pIC50 read?
Answer: 6.96

Question: With `O=C(N[C@H]1CCCN(S(=O)(=O)c2ccc(F)c3ccccc23)C1)N1CCC(O)CC1` [Example 703] as the compound, how does the pIC50 read?
Answer: 7.89

Question: With `O=S(=O)(Cc1ccc(C(F)(F)F)cc1)N1CCN(c2ncccc2C(F)(F)F)CC1` [Example 707] as the compound, how does the pIC50 read?
Answer: 6.37

Question: With `COc1ccc(S(=O)(=O)NCC(=O)c2ccc(C(C)(C)C)cc2)cc1` [Example 713] as the compound, how does the pIC50 read?
Answer: 7.09

Same assay, conditions: cited from earlier work

Question: With `C[C@H](CCC(=O)O)[C@H]1CC[C@H]2[C@@H]3[C@H](O)C[C@@H]4C[C@H](O)CC[C@]4(C)[C@H]3CC[C@]12C` [Example 490] as the compound, how does the pIC50 read?
Answer: 5.55

Question: With `Cc1c(Cl)cccc1S(=O)(=O)Nc1nc(CC(=O)N2CCN(C)CC2)cs1` [Example 500] as the compound, how does the pIC50 read?
Answer: 7.02

Question: With `C[C@H](NC1=NC(=O)C(C)(C(F)(F)F)S1)c1ccccc1F` (stereo partly drawn) [Example 527] as the compound, how does the pIC50 read?
Answer: 7.48

Question: With `Cc1cc(C)nc(NS(=O)(=O)N2CCN(c3ccc(C#N)cn3)CC2)c1` [Example 674] as the compound, how does the pKi read?
Answer: 9.18

Question: With `C[C@](O)(c1ccc(C(=O)N(C2CCC(c3cccnc3)CC2)C2CC2)cc1)C(F)(F)F` (stereo partly drawn) [Example 714] as the compound, how does the pIC50 read?
Answer: 8.85

Same assay, conditions: read-out: IC50; cited from earlier work

Question: With `CC(C)[C@@H]1CC[C@@H](C)C[C@@H]1O` [Example 524] as the compound, how does the pIC50 read?
Answer: 4.46

Question: With `Cc1c(Cl)cccc1S(=O)(=O)N1CCC[C@H](C(=O)NC2CCCCC2)C1` [Example 600] as the compound, how does the pIC50 read?
Answer: 8.52

Question: With `O=C(N[C@H]1CCCN(S(=O)(=O)c2ccc(F)c3ccccc23)C1)N1C2CCC1CC(O)C2` (stereo partly drawn) [Example 601] as the compound, how does the pIC50 read?
Answer: 8.52

Same assay, conditions: read-out: Ki; cited from earlier work

Question: With `N#Cc1ccc(C2CCN(S(=O)(=O)Nc3cccc(N)n3)CC2)cc1` [Example 671] as the compound, how does the pKi read?
Answer: > 9.00
